Measured values taken from ChEMBL document CHEMBL1149865, “Pyridinium alkaloid-coupled secoiridoids from the flower buds of Lonicera japonica” (2008).

Experiment: Antiinflammatory activity in rat polymorphonuclear leukocytes assessed as inhibition of platelet activating factor-induced release of glucuronidase at 10 uM after 15 mins
Format: functional
Details: 0.25 h

Row | Structure (SMILES) | inhibition at 10 µM [%]
1 | C=C[C@H]1[C@H](O[C@@H]2O[C@H](CO)[C@@H](O)[C@H](O)[C@H]2O)OC=C(C(=O)OC)[C@H]1/C=C/c1cc(C(=O)[O-])c[n+](CCCC(=O)O)c1 [LONIJAPOSIDE A] | 11
2 | C=C[C@H]1[C@H](O[C@@H]2O[C@H](CO)[C@@H](O)[C@H](O)[C@H]2O)OC=C(C(=O)OC)[C@H]1/C=C/c1cc(C(=O)[O-])c[n+](CCO)c1 [LONIJAPOSIDE B] | 35.8
3 | C=C[C@H]1[C@H](O[C@@H]2O[C@H](CO)[C@@H](O)[C@H](O)[C@H]2O)OC=C(C(=O)O)[C@H]1/C=C/c1cc(C(=O)[O-])c[n+](CCO)c1 [LONIJAPOSIDE C] | 69.5
